Measurements: US11491117B2, “Compounds for the prevention and treatment of glucose intolerance related conditions and obesity” (SORBONNE UNIVERSITÉ, priority 2017, dated 2022)

Legend:
[1] = system: C57BL/6J mice fed control chow diet (CHD) or high fat diet (HFD); experiment: Chronic subcutaneous infusion in mice fed control chow or high fat diet: body growth, glucose homeostasis (IPGTT), insulin secretion, organ weight, liver triglycerides; type: in vivo, mouse
Experimental: Six weeks-old C57BL/6J male mice (Janvier Labs, Courtaboeuf, France) were received and acclimated in specific pathogen free (SPF) maintenance condition. Mice had free access to a standard chow diet (R04-40, Safe, Augy, France) and were kept on 12 h light/dark cycle. After one week, a group of 12 mice was fed control carbohydrate diet (CHD) (D 12450Ki, Research diets, NJ) and a group of 12 mice was fed high fat (60% fat and sucrose) diet (HFD) (D12492i, Research diets, NJ).
After three weeks of metabolite treatment (i.e. four weeks of HFD feeding) an intra-peritoneal glucose tolerance test (IPGTT) (2 g/kg) was performed in conscious mice following an overnight fast. Blood was collected from the tail vein before glucose injection and 15, 30, 60 and 120 minutes afterwards. Additional blood samples were collected during the IPGTT in GK rats 15, 90, 180 and 240 minutes after glucose injection. Blood glucose levels were determined using an Accu-Check® Performa (Roche Diagnostics, Meylan, France). Additional blood samples were collected at base line and 30 minutes after glucose injection in Microvette® CB 300 Lithium Heparin (Sarstedt, Marnay, France). Plasma was separated by centrifugation and stored at −80° C. until insulin radioimmunoassay. Evaluation of overall glucose tolerance was obtained from cumulative glycemia (GCum) and the ΔG, which were determined by the total increment of plasma glucose values during the IPGTT (GCum) and the cumulative glycemia during the test above baseline (ΔG). After six weeks of metabolite treatment, mice were killed by decapitation and organ were dissected and weighed. Half of liver, fat and pancreas samples were snap frozen in liquid nitrogen and stored at −80° C. for molecular studies, and the second half processed for histopathology. All procedures were authorized following review by the institutional ethic committee and carried out under national license condition (Ref 00486.02).
(§1) Blood glucose was measured using an Accu-Check® Performa (Roche Diagnostics, Meylan, France) and plasma insulin was determined using Insulin ELISA kits (Mercodia, Uppsala, Sweden). For determination of liver triglycerides, liver samples (100 mg) were homogenized and incubated in NonidetP-40 (5%) and supernatants containing triglycerides were collected. Triglycerides concentration was quantified in the supernatant fraction using a colorimetric assay (ab65336, Abcam, Paris, France) by measuring OD at 570 nm. The ratio NAD/NADH was determined using a quantification kit (MAK037; SigmaAldrich, St Quentin, France) on extracts prepared from 20 mg pancreas tissue. Samples were homogenized in the extraction buffer and clarified by centrifugation. Supernatant was deproteinized by filtration through a 10-kDa cutoff spin filter (Millipore SAS, Molsheim, France). The assay was then performed according to the manufacturer's instructions.
As expected, mice fed HFD rapidly gained more weight than mice fed control diet and developed fasting hyperglycemia and marked glucose intolerance (FIG. 1A-1F).

[2] = system: pancreas gene expression; experiment: Quantitative RT-PCR in pancreas of chronically treated GK rats; type: in vivo, rat
Experimental: RNA was extracted from pancreas, adipose tissue and liver using the RNeasy RNA Mini Kit (Qiagen, Courtaboeuf, France). Reverse transcription was performed from a 20 μL reaction mixture with 500 ng RNA using M-MLV reverse transcriptase kit (ThermoFisher, Villebon, France). Quantitative RT-PCR was performed using sequence specific primers and the MESA green kit for SYBR green assays (Eurogentec, Angers, France). We used 18S and/or cyclophilin house keeping genes to normalize relative quantification of mRNA levels using the Livak and […] methods ([…], 2001).

[3] = system: pancreas gene expression; experiment: Quantitative RT-PCR and NAD/NADH in total pancreas of chronically treated mice; type: in vivo, mouse
Experimental: as §1, with “SigmaAldrich, St Quentin, France) on extracts prepared from 20 mg pancreas tissue.” left out, “instructions. RNA was extracted from pancreas, adipose tissue and liver using the RNeasy RNA Mini Kit (Qiagen, Courtaboeuf, France). Reverse transcription was performed from a 20 μL reaction mixture with 500 ng RNA using M-MLV reverse transcriptase kit (ThermoFisher, Villebon, France). Quantitative RT-PCR was performed using sequence specific primers and the MESA green kit for SYBR green assays (Eurogentec, Angers, France). We used 18S and/or cyclophilin house keeping genes to normalize relative quantification of mRNA levels using the Livak and […] methods ([…], 2001).” for “instructions.”

[4] = mice fed control diet, IPGTT, vs saline
[5] = CHD-fed mice, not statistically significant

Cc1ccc(O)cc1 [4-cresol]
effect on body weight ([1]; HFD-fed mice): strongly significant
effect on glycemic control ([1]; HFD-fed mice): strongly significant
effect on insulin secretion ([1]; HFD-fed mice): strongly significant
liver weight ([1]; HFD-fed mice): reduced
ΔG parameter ([1]; HFD-fed mice, IPGTT, vs HFD saline): normalized to the level of mice fed chow diet and treated with saline
fasting glycemia ([1]; HFD-fed mice, vs HFD saline): strong reduction
fasting hyperinsulinemia ([1]; HFD-fed mice, vs HFD saline): strong reduction
increase in pancreas weight ([1]; both diet groups, 6 weeks, vs saline): 48.9%
liver triglycerides content ([1]; both diet groups, vs saline): systematic and dramatic reduction
heart weight ([1]; mice fed CHD or HFD, 6 weeks): not affected
kidney weight ([1]; mice fed CHD or HFD, 6 weeks): not affected
acute glycemic response to the glucose challenge [1, 4]: significant reduction
glucose tolerance [1, 4]: improved
BMI ([1]; mice fed control diet, end of experiment, vs saline): significant decrease in BMI
body weight ([1]; mice fed control diet, s.c. infusion 0.5 mg/kg/day, 42 days, vs saline): progressive reduction in body weight
glucose-stimulated insulin secretion ([1]; mice fed control diet, vs controls): significant increase
cumulative glycemia during the IPGTT ([1]; mice fed control diet, vs saline): significant reduction
stimulatory effects on expression of Sirt1, Ins1, Hnf1α, IL10 and Vegfa in pancreas ([2]; GK rats): replicated
pancreatic expression of ERα ([2]; GK rats in vivo): does not regulate significantly
DYRK1A pancreatic transcription ([2]; GK rats, chronic treatment): significant downregulation
expression of genes encoding amylase, IL6 and Tnf in pancreas ([2]; GK rats, differences to saline not statistically significant): strongly altered
expression of Ins1 and Hnf1α in pancreas [3, 5]: Enhanced expression
expression of Ucp2 in pancreas [3, 5]: reduced expression
transcription of genes encoding amylase, Vegf, Bdnf, IL10 and Sirt1 in pancreas ([3]; CHD-fed mice, vs saline-treated CHD-fed mice): increased transcription
IL10 transcript level in pancreas ([3]; HFD-fed mice): remained elevated
expression of Bdnf, Hnf1α, Pdx1 and Vegf in pancreas ([3]; HFD-fed mice, differences not statistically significant): strongly overexpressed
pancreatic expression of ERα ([3]; fat fed mice in vivo): does not regulate significantly
expression of Ucp2, IL6 and Tnf in pancreas ([3]; mice fed HFD, vs HFD saline): significantly reduced expression
expression of genes encoding Sirt1 and Ins1 in pancreas ([3]; mice fed HFD, vs HFD saline): significant overexpression
DYRK1A pancreatic transcription ([3]; mice fed control or HFD, chronic treatment): significant downregulation
